# Source: patent US8377935B2, “Substituted aminopropenyl piperidine or morpholine derivatives as novel inhibitors of histone deacetylase” (Janssen Pharmaceutica N.V., priority 2005, dated 2013)
# Legend:
# [1] = molecular target: histone deacetylase (HeLa nuclear extracts); experiment: In vitro assay for inhibition of histone deacetylase (HDAC Fluorescent Activity Assay, Fluor de Lys); type: biochemical; settings: HeLa nuclear extracts 60 μg/ml, 75 μM Fluor de Lys substrate
# Source text: The in vitro assay for inhibition of histone deacetylase (see example C.1) measures the inhibition of HDAC enzymatic activity obtained with the compounds of formula (I).
# The HDAC Fluorescent Activity Assay/Drug Discovery Kit of Biomol (cat.No: AK-500-0001) was used. The HDAC Fluorescent Activity Assay is based on the Fluor de Lys (Fluorogenic Histone deAcetylase Lysyl) substrate and developer combination. The Fluor de Lys substrate, comprises an acetylated lysine side chain. Deacetylation of the substrate sensitizes the substrate so that, in the second step, treatment with the Fluor de Lys developer produces a fluorophore.
# HeLa nuclear extracts (supplier: Biomol) were incubated at 60 μg/ml with 75 μM of substrate. The Fluor de Lys substrate was added in a buffer containing 25 mM Tris, 137 mM. NaCl, 2.7 mM KCl and 1 mM MgCl2.6H2O at pH 7.4. After 30 min, 1 volume of the developer was added. The fluorophore was excited with 355 nm light and the emitted light (450 nm) was be detected on a fluorometric plate reader.
# For each experiment, controls (containing HeLa nuclear extract and buffer), a blank incubation (containing buffer but no HeLa nuclear extract) and samples (containing compound dissolved in DMSO and further diluted in buffer and HeLa nuclear extract) were run in parallel. In first instance, compounds were tested at a concentration of 10^−5M. […] All sample were tested 4 times. In each test the blank value was substracted from both the control and the sample values. The control sample represented 100% of substrate deactylation. For each sample the fluorescence was expressed as a percentage of the mean value of the controls. […] Herein the effects of test compounds are expressed as pIC50 (the negative log value of the IC50-value) (see Table F-3).
# [2] = Metabolic stability with rat hepatocytes cell culture; type: in vitro ADME; settings: rat hepatocyte cell cultures, 5 μM
# Source text: Metabolism of drugs means that a lipid-soluble xenobiotic or endobiotic compound is enzymatically transformed into (a) polar, water-soluble, and excretable metabolite(s). The major organ for drug metabolism is the liver. […] However, some metabolites may have enhanced activity or toxic effects. Thus drug metabolism may include both “detoxication” and “toxication” processes. One of the major enzyme systems that determine the organism's capability of dealing with drugs and chemicals is represented by the cytochrome P450 monooxygenases, which are NADPH dependent enzymes. Metabolic stability of compounds can be determined in vitro with the use of subcellular human tissue (see example C.5.a.). Here metabolic stability of the compounds is expressed as % of drug metabolised after 15 minutes incubation of these compounds with microsomes. Quantitation of the compounds was determined by LC-MS analysis. Metabolic stability of compounds can also be determined by calculating the half live of compounds in rat hepatocyte cells (see example C.5.b.). […]
# Samples were prepared for LC-MS by addition of two volumes of DMSO. […] Of the resulting supernatant 50 μl was analysed by LC-MS. […]
# Total injection volume of samples was 50 μL. […] The mass spectrometer was operated in positive ion mode in SIM adjusted to the mass of […] with a scan width of 1 Da for quantification purposes. […]
smiles,measurement,setting,value
O=C(NO)c1cnc(N2CCC(CNC(/C=C/c3ccccc3)CO)CC2)nc1 (centres unmarked) [Compound 1],Enzyme activity pIC50,[1],9.0
same,in vitro half-live,[2],103 min
